# “Also recorded” adds a separate entry of the source.
# What was measured:
# primary AML cells = test: Clonogenicity of primary AML cells in MethoCult; assay type: cell-based, human
# Description: Effect of UR778Br on clonogenicity of primary AML cells: Vials of primary AML cells cryopreserved in liquid nitrogen were thawed rapidly in a 37° C. water bath. The contents, generally one ml, were transferred to a 15 ml conical tube, one tenth the volume of DNase was added (bovine pancreas deoxyribonuclease, Sigma Aldrich D4263-5VL), it was mixed gently and incubated in a 37° C. water bath for 90 seconds. 9 ml of DMEM with 2% FBS was added dropwise and mixed gently. Samples were then centrifuged for 5 to 6 minutes, aspirated and the supernatant discarded. 70 μl of DNase were added and mixed gently. 10 ml of DMEM with 2% FBS was added slowly to resuspend and then the sample was centrifuged for 5 to 6 minutes. Supernatant was discarded, 50 μl of DNase was added, sample was mixed gently and the pellet was resuspended in 5 ml of IMDM+10% FBS, L-glutamine 2 mM (GIBCO) and penicillin and streptomycin (50 units and 50 mcg/ml). The cells were counted in a hemocytometer with viability estimated by Trypan blue dye exclusion.
# The cell suspension was then added to MethoCult Enriched H4435 (Stem Cell Technologies, catalog number 04435) to achieve a final concentration between 5×10^4 to 2×10^5/ml. DMSO, UR778Br or cytarabine were added to achieve indicated concentrations. […] The plates were incubated 37° C., 5% CO2 incubator and colonies were counted at 7, 14 and 21 days. […]
# [1] = system: MOLM13, MV411, THP1 and U937; test: Viability of cell lines by the MTS assay; assay type: cell-based, human; conditions: range of concentrations, 48 hours
# Description: Effect of UR778Br on viability of cell lines: Viability of MOLM13, MV411, THIP1 and U937 was determined by the MTS assay. Briefly, 20,000 to 40,000 cells/well were seeded in triplicate wells of a 96 well plate and treated with a range of UR778Br doses and incubated for 48 to 72 hours at 37° C. with 5% CO2 in a humidified incubator. Cell Titre96R Aqueous One Solution Cell Proliferation Assay reagent (Promega Corp., catalog number: G3580) diluted 1-10 in complete RPMI medium was added and cells were incubated for 4 hours. The optical density (OD) values were read at 490 nm wavelength using BioRad iMark microplate reader. Experiments were performed in triplicates; data are expressed as the mean of the triplicate determinations (X±SD) of a representative experiment in % of absorbance by samples with untreated cells [=100%].
# leukemia cell lines = test: Screening of hits and structural analogs for effects on proliferation of leukemia cell lines; assay type: cell-based, human; conditions: dose range tested; data not shown
# [2] = system: MOLM13, MV411, THP1 and U937 cells; test: Cell cycle analysis by flow cytometry; assay type: cell-based, human; conditions: range of concentrations, 24 hours
# Description: Cell cycle analysis: For cell cycle analysis, Leukemia cell lines were washed with 1× phosphate buffered saline (PBS Mediatech, Inc., Manassas, VA, USA) and centrifuged at 1200 rpm for 8 minutes. Cell pellet was re-suspended in 100 microliters of Cytofix/Cytoperm™ (BD Biosciences, Cat No. 554722) buffer for at room temperature (RT) for 15 minutes. Cell suspension washed with 1×PBS and centrifuged at 1200 rpm for 8 minutes and re-suspended in 1 ml of culture media containing 1 μl of Vybrant® DyeCycler™ Violet Stain (ThermoFisher Scientific, Cat No. V35003). Cell suspensions were incubated at 37° C. in a 5% CO2 incubator for least 30 minutes. Cell suspensions were analyzed using a LSRII™ flow cytometer (BD Biosciences, San Jose, CA, USA). A minimum of 8,000 cells were included in the analysis of each sample. Data were analyzed by FlowJo software (Tree Star, Ashland, OR, USA) and collected on linear scale for forward and side scatter (i.e., FSC and SSC, respectively) and on a linear scale for violet fluorescence channel […].
# primary human AML cells = test: Viability of primary AML cells (annexin-V/DAPI flow cytometry); assay type: cell-based; conditions: dose range, 48 hours
# Description: Effect of UR778Br on apoptosis in primary AML cells: Primary AML cells were treated with DMSO or varying concentrations of UR778Br and cytarabine 5 μM and cultured in a 37° C., 5% CO2 incubator for 24 and 48 hours. The cells were stained for 15 min in annexin-V binding buffer (10 mM HEPES/NaOH, pH 7.4, 140 mM NaCl, 2.5 mM CaCl2)) containing annexin-V-APC antibody (BD Biosciences) and DAPI (Sigma). Stained cells were analyzed immediately on using a LSRII™ flow cytometer (BD Biosciences, San Jose, CA, USA).
# Effect of UR778Br on viability of primary human AML cells: Vials of primary AML cells cryopreserved in liquid nitrogen were thawed rapidly in a 37° C. water bath. The contents, generally one ml, were transferred to a 15 ml conical tube, one tenth the volume of DNase was added (bovine pancreas deoxyribonuclease, Sigma Aldrich D4263-5VL), it was mixed gently and incubated in a 37° C. water bath for 90 seconds. 9 ml of DMEM with 2% FBS was added dropwise and mixed gently. Samples were then centrifuged for 5 to 6 minutes, aspirated and the supernatant discarded. […] The cells were counted in a hemocytometer with viability estimated by Trypan blue dye exclusion.
# Primary cells were cultured in 37° C., 5% CO2 incubator. […] Stained cells were analyzed immediately on BD FACS Celesta, flow cytometer (BD Biosciences). Viable cells were scored as annexin-V and DAPI double negative cells.
# IQGAP1 = IQGAP1 expression in MOLM13 cells (immunoblot); assay type: cell-based, human; conditions: 25 μM, 24 hours
# [3] = system: MOLM13, MV411, THP1 and U937 cells; test: Proliferation of cell lines by counting cells in a hemocytometer; assay type: cell-based, human; conditions: range of concentrations, 72 hours
# Description: Effect of UR778Br on proliferation of cell lines: Proliferation of MOLM13, MV411, THP1 and U937 cells was measured by counting cells in a hemocytometer. Briefly, cells were seeded at 20,000 to 40,000 cells/well in triplicate wells of a 96 well plate and treated with a range of UR778Br doses and incubated at 37° C. with 5% CO2 in a humidified incubator. Cell counts were determined at 24-, 48- and 72 hours.
# [4] = system: MOLM13, MV411, THP1 and U937; test: Colony formation of leukemia cell lines in MethoCult; assay type: cell-based, human; conditions: 6.25 μM
# Description: Effect of UR778Br on colony formation cell lines: MOLM13, MV411, THP1 and U937 were added to MethoCult H4435 Enriched (Stem Cell Technologies, catalog number 04435) to achieve concentration of 2000 cells/ml, 500 cells/ml and 200 cells/ml. UR778br was added to achieve a range of concentrations. Each condition was done in triplicate. The plates were incubated at 37° C. with 5% CO2 in a humidified incubator Colonies were counted at 7, 14 and 21 days.
# normal bone marrow cells = test: Colony formation by normal bone marrow in MethoCult; assay type: cell-based, human
# Description: Effect of UR778Br on colony formation by normal bone marrow: Vials of cryopreserved aliquots were thawed the in a 37° C. water bath. Nine ml of RPMI with 2% FBS were added dropwise to the cells in 1 ml of freezing media, centrifuged at 1000 rpm for 5 min and re-suspended in 5 ml of RPMI. The cells were counted in a hemocytometer and viability estimated by Trypan blue dye exclusion. The cells were added to MethoCult H4435 Enriched (Stem Cell Technologies, catalog number 04435) to achieve concentrations of 5×10^4 to 1×10^5 viable cells/ml. UR778Br was added at indicated concentrations. The mixture was vortexed and allowed to settle. Each condition was dispersed in triplicate or quadruplicate. The plates were incubated at 37° C. with 5% CO2 in a humidified incubator and colonies were counted at 7, 14 and 21 days. Images of colony forming unit assays were acquired using the Celligo imaging cytometer (Nexcelom Biosciences) at a resolution of 1 pixel/μm. Celligo instrument software was used for image processing.
# [5] = system: MOLM13, MV411, THP1 and U937 cells; test: Apoptosis by Western blot of cleaved PARP; assay type: cell-based, human; conditions: 25 μM, 24 hours
# Description: For measurement of apoptosis by Western blot the MOLM13, MV41, THP1 and U937 cells treated with UR778Br for 24 hours were lysed and expression of cleaved PARP, an indicator of apoptosis, was measured as described above.
smiles,measurement,setting,value
CCCCN1C(=O)C(O)(CC(=O)c2ccccc2O)c2cc(Br)ccc21 (stereo not shown) [UR778Br],colony formation by three primary AML cells,primary AML cells; concentrations as low as 6.25 μM,blocks colony formation
same,colony formation units of primary AML cells,primary AML cells; varying concentrations,inhibition of the colony formation units
same,viability,[1],decreased viability in AML cell lines in a dose-dependent fashion; also recorded: dose-dependent decrease in viability
same,inhibition of proliferation of leukemia cells (anti-proliferative activity),leukemia cell lines,most potent structural analog of AK778
same,cell cycle arrest,[2],cell cycle arrest in the G2M phase in a dose-dependent manner; also recorded: dose-dependent arrest in G2/M phase of the cell cycle
same,viability (annexin-V and DAPI double negative cells),primary human AML cells,dose dependent decrease in viability
same,expression of IQGAP1,IQGAP1,decreased expression of IQGAP1
same,proliferation,[3],dose dependent reduction of proliferation
same,colony formation units,[4],suppress clonogenic progenitors; also recorded: inhibition of the colony formation units
same,colony formation by normal bone marrow,normal bone marrow cells; 6.25 μM,did not inhibit colony formation by normal bone marrow; also recorded: majority of normal bone marrow samples do not exhibit reduced colony formation
same,colony formation by normal primary bone marrow cells,normal bone marrow cells; 12.5 μM compared with 6.25 μM,inhibition of the colony formation units to a greater degree than at 6.25 μM concentration
same,apoptosis (expression of cleaved PARP),[5],apoptosis in MOLM13 cells
same,apoptosis (expression of cleaved PARP),[5]; listed as UR778B2,apoptosis in the four cell lines

# — patent publication US12076310B2, “Compounds and methods for the treatment of acute myelogenous leukemia” (University of Rochester, priority 2021, dated 2024)
